Measurements reported in ChEMBL document CHEMBL1147274, “Isoflavans and a Stilbene from Wood of the Decay-Resistant Tropical Tree Diphysa robinioides” (1986).
Values after ≈ are worked out from the molar mass of the structure shown. Active and inactive are the calls of the source. The rule behind the calls is not given here.

Columns and labels:
[1] = system: Candida albicans; assay: […] activity against Candida albicans ATCC 10231; format: functional
[2] = system: Salmonella enterica subsp. enterica serovar Gallinarum; assay: Antibacterial activity against Salmonella gallinarum ATCC 9184; format: functional
[3] = system: Mycolicibacterium smegmatis; assay: Antibacterial activity against Mycobacterium smegmatis ATCC 607; format: functional
[4] = system: Klebsiella pneumoniae; assay: Antibacterial activity against Klebsiella pneumoniae ATCC 10031; format: functional
[5] = system: Escherichia coli; assay: Antibacterial activity against Escherichia coli ATCC 9637; format: functional
[6] = system: Staphylococcus aureus; assay: Antibacterial activity against Staphylococcus aureus ATCC 13709; format: functional
[7] = system: Pseudomonas aeruginosa; assay: Antibacterial activity against Pseudomonas aeruginosa ATCC 27853; format: functional, organism-based

Compound | MIC [1] | MIC [2] | MIC [3] | MIC [4] | MIC [5] | MIC [6] [µg/mL] | MIC [7]
COc1ccc([C@H]2COc3c(ccc(O)c3CC=C(C)C)C2)c(O)c1 | 12.5 µg/mL (≈ 36.7 µM) | inactive | inactive | inactive | inactive | 6.25 (≈ 18.4 µM) | inactive
O=C1c2c(O)cc(O)cc2OC(c2ccc(O)cc2)C1C1C(=O)c2c(O)cc(O)cc2OC1c1ccc(O)cc1 (stereo unspecified) [CHAMAEJASMIN] | inactive | inactive | inactive | inactive | inactive | 12.5 (≈ 23 µM) | inactive
CN[C@@H]1[C@H](O[C@H]2[C@H](O[C@H]3[C@H](O)[C@@H](O)[C@H](N=C(N)N)[C@@H](O)[C@@H]3N=C(N)N)O[C@@H](C)[C@]2(O)C=O)O[C@@H](CO)[C@H](O)[C@H]1O.CN[C@@H]1[C@H](O[C@H]2[C@H](O[C@H]3[C@H](O)[C@@H](O)[C@H](N=C(N)N)[C@@H](O)[C@@H]3N=C(N)N)O[C@@H](C)[C@]2(O)C=O)O[C@@H](CO)[C@H](O)[C@H]1O.O=S(=O)(O)O.O=S(=O)(O)O.O=S(=O)(O)O [STREPTOMYCIN SULFATE] | inactive | 50 µg/mL | 1.25 µg/mL | 2.5 µg/mL | 5 µg/mL | 5 | inactive
